Measurements from patent US20220281848A1, “PYRAZOLE-SUBSTITUTED PYRROLIDINONES AS HERBICIDES” (FMC Corporation, priority 2019, published 2022).

Tests used:
Assay type in all cases: in vivo
[1] = tested on: barnyardgrass (Echinochloa crus-galli, ECHCG); test: Test A pre-emergence, barnyardgrass; settings: after 13 d
Procedure, shortened: (§1)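 Damage rated visually at 13 d on a 0–100 scale (100 = plant killed). Pre-emergence spray one day after sowing; doses 15.625, 62.5 or 250 g/ha from an acetone/water 50:50 formulation with 0.5% Tween 20. Glasshouse at 24/16° C., 14 h photoperiod, 65% humidity.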

[2] = tested on: redroot pigweed (Amaranthus retroflexus, AMARE); test: Test A pre-emergence, redroot pigweed; settings: after 13 d
Procedure, shortened: as §1

[3] = tested on: velvetleaf (Abutilon theophrasti, ABUTH); test: Test A pre-emergence, velvetleaf; settings: after 13 d
Procedure, shortened: as §1

corn (Zea mays, ZEAMX) = test: Test A post-emergence, corn; settings: after 13 d
Procedure, shortened: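 Visual damage rating (0 no damage to 100 total damage) was made 13 d after spraying. The spray was 15.625, 62.5 or 250 g/ha in 50:50 acetone/water with 0.5% Tween 20, applied to 8-day-old glasshouse plants kept at 24/16° C, 14 h light and 65% humidity.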

plants = test: Test D post-emergence, other plants of Tables D2 and D4; settings: post-emergence
Procedure, shortened: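 Seeds treated with herbicide safener; sown in soil; glasshouse, 16 h light, 65% humidity. Sprayed day 1 (pre) or ~day 12 (post). Spray in 0.2% v/v adjuvant. Scored 0–100 damage: 20 DAA pre, 15 d post.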

In the case of `CCn1nc([C@H]2CN(C)C(=O)[C@@H]2C(=O)Nc2cccc(F)c2F)c2c(F)cccc21` [Compound 7], the “damage to plant (100=total damage; 0=no damage) ECHCG” value ([1]; Pre-Emergence at 15.625 g/ha) is reported as 70, the “damage to plant (100=total damage; 0=no damage) ECHCG” value ([1]; Pre-Emergence at 62.5 g/ha) is reported as 80 and the “damage to plant (100=total damage; 0=no damage) ECHCG” value ([1]; Pre-Emergence at 250 g/ha) is reported as 90. For the same compound, the “damage to plant (100=total damage; 0=no damage) AMARE” value ([2]; Pre-Emergence at 15.625 g/ha) was 0, the “damage to plant (100=total damage; 0=no damage) AMARE” value ([2]; Pre-Emergence at 62.5 g/ha) was 0 and the “damage to plant (100=total damage; 0=no damage) AMARE” value ([2]; Pre-Emergence at 250 g/ha) was 0. For the same compound, the “damage to plant (100=total damage; 0=no damage) ABUTH” value ([3]; Pre-Emergence at 15.625 g/ha) was 0, the “damage to plant (100=total damage; 0=no damage) ABUTH” value ([3]; Pre-Emergence at 62.5 g/ha) was 0 and the “damage to plant (100=total damage; 0=no damage) ABUTH” value ([3]; Pre-Emergence at 250 g/ha) was 0. The “damage to plant (100=total damage; 0=no damage) ZEAMX” value (corn (Zea mays, ZEAMX); Post-Emergence at 15.625 g/ha) was 20, the “damage to plant (100=total damage; 0=no damage) ZEAMX” value (corn (Zea mays, ZEAMX); Post-Emergence at 62.5 g/ha) was 40 and the “damage to plant (100=total damage; 0=no damage) ZEAMX” value (corn (Zea mays, ZEAMX); Post-Emergence at 250 g/ha) was 80. The “damage to plant (100=total damage to plant; 0=no damage to plant), ABUTH” value (plants; rate 130, evaluated after 15 d) was 0, the “damage to plant (100=total damage to plant; 0=no damage to plant), ABUTH” value (plants; rate 250, evaluated after 15 d) was 10 and the “damage to plant (100=total damage to plant; 0=no damage to plant), ABUTH” value (plants; rate 500, evaluated after 15 d) was 20. The “damage to plant (100=total damage to plant; 0=no damage to plant), AMARE” value (plants; rate 130, evaluated after 15 d) was 0, the “damage to plant (100=total damage to plant; 0=no damage to plant), AMARE” value (plants; rate 250, evaluated after 15 d) was 0 and the “damage to plant (100=total damage to plant; 0=no damage to plant), AMARE” value (plants; rate 500, evaluated after 15 d) was 10. The “damage to plant (100=total damage to plant; 0=no damage to plant), BIDPI” value (plants; rate 130, evaluated after 15 d) was 0, the “damage to plant (100=total damage to plant; 0=no damage to plant), BIDPI” value (plants; rate 250, evaluated after 15 d) was 0 and the “damage to plant (100=total damage to plant; 0=no damage to plant), BIDPI” value (plants; rate 500, evaluated after 15 d) was 0. For the same compound, the “damage to plant (100=total damage to plant; 0=no damage to plant), BRAPL” value (plants; rate 130, evaluated after 15 d) was 0, the “damage to plant (100=total damage to plant; 0=no damage to plant), BRAPL” value (plants; rate 250, evaluated after 15 d) was 80 and the “damage to plant (100=total damage to plant; 0=no damage to plant), BRAPL” value (plants; rate 500, evaluated after 15 d) was 80. For the same compound, the “damage to plant (100=total damage to plant; 0=no damage to plant), CYPES” value (plants; rate 130, evaluated after 15 d) was 0, the “damage to plant (100=total damage to plant; 0=no damage to plant), CYPES” value (plants; rate 250, evaluated after 15 d) was 0 and the “damage to plant (100=total damage to plant; 0=no damage to plant), CYPES” value (plants; rate 500, evaluated after 15 d) was 0. For the same compound, the “damage to plant (100=total damage to plant; 0=no damage to plant), DIGSA” value (plants; rate 130, evaluated after 15 d) was 0, the “damage to plant (100=total damage to plant; 0=no damage to plant), DIGSA” value (plants; rate 250, evaluated after 15 d) was 80 and the “damage to plant (100=total damage to plant; 0=no damage to plant), DIGSA” value (plants; rate 500, evaluated after 15 d) was 80. For the same compound, the “damage to plant (100=total damage to plant; 0=no damage to plant), ECHCG” value (plants; rate 130, evaluated after 15 d) was 20, the “damage to plant (100=total damage to plant; 0=no damage to plant), ECHCG” value (plants; rate 250, evaluated after 15 d) was 70 and the “damage to plant (100=total damage to plant; 0=no damage to plant), ECHCG” value (plants; rate 500, evaluated after 15 d) was 70. For the same compound, the “damage to plant (100=total damage to plant; 0=no damage to plant), EPHHL” value (plants; rate 130, evaluated after 15 d) was 0, the “damage to plant (100=total damage to plant; 0=no damage to plant), EPHHL” value (plants; rate 250, evaluated after 15 d) was 20 and the “damage to plant (100=total damage to plant; 0=no damage to plant), EPHHL” value (plants; rate 500, evaluated after 15 d) was 40. For the same compound, the “damage to plant (100=total damage to plant; 0=no damage to plant), GLXMA” value (plants; rate 130, evaluated after 15 d) was 0, the “damage to plant (100=total damage to plant; 0=no damage to plant), GLXMA” value (plants; rate 250, evaluated after 15 d) was 0 and the “damage to plant (100=total damage to plant; 0=no damage to plant), GLXMA” value (plants; rate 500, evaluated after 15 d) was 0. For the same compound, the “damage to plant (100=total damage to plant; 0=no damage to plant), IPOHE” value (plants; rate 130, evaluated after 15 d) was 0, the “damage to plant (100=total damage to plant; 0=no damage to plant), IPOHE” value (plants; rate 250, evaluated after 15 d) was 0 and the “damage to plant (100=total damage to plant; 0=no damage to plant), IPOHE” value (plants; rate 500, evaluated after 15 d) was 0. The “damage to plant (100=total damage to plant; 0=no damage to plant), ORYSA” value (plants; rate 130, evaluated after 15 d) was 0, the “damage to plant (100=total damage to plant; 0=no damage to plant), ORYSA” value (plants; rate 250, evaluated after 15 d) was 0 and the “damage to plant (100=total damage to plant; 0=no damage to plant), ORYSA” value (plants; rate 500, evaluated after 15 d) was 0. The “damage to plant (100=total damage to plant; 0=no damage to plant), PANMI” value (plants; rate 130, evaluated after 15 d) was 0, the “damage to plant (100=total damage to plant; 0=no damage to plant), PANMI” value (plants; rate 250, evaluated after 15 d) was 0 and the “damage to plant (100=total damage to plant; 0=no damage to plant), PANMI” value (plants; rate 500, evaluated after 15 d) was 0. The “damage to plant (100=total damage to plant; 0=no damage to plant), SETFA” value (plants; rate 130, evaluated after 15 d) was 0, the “damage to plant (100=total damage to plant; 0=no damage to plant), SETFA” value (plants; rate 250, evaluated after 15 d) was 70 and the “damage to plant (100=total damage to plant; 0=no damage to plant), SETFA” value (plants; rate 500, evaluated after 15 d) was 70. For the same compound, the “damage to plant (100=total damage to plant; 0=no damage to plant), SIDSP” value (plants; SIDSP, rate 500, evaluated after 15 d) was 30, the “damage to plant (100=total damage to plant; 0=no damage to plant), SORVU” value (plants; rate 130, evaluated after 15 d) was 0 and the “damage to plant (100=total damage to plant; 0=no damage to plant), SORVU” value (plants; rate 250, evaluated after 15 d) was 0. For the same compound, the “damage to plant (100=total damage to plant; 0=no damage to plant), SORVU” value (plants; rate 500, evaluated after 15 d) was 60.
